# Test results published in US20240336591A1, “ORGANIC PYRIDINE-PYRAZOLE COMPOUNDS AND THEIR USES” (priority 2021, published 2024).
# Like-named read-outs stand apart in the source and are kept apart here.
# Key:
# Human PDE10A2 [1] = biological target: T1, Human PDE10A2 (Homo sapiens (Human), UniProt Q9Y233); test: Cell based human PDE10A activity assay - cAMP HTRF assay in HEK 293 rhPDE10A2 cell line
# Experimental: Semi log compound dilutions starting at a final concentration of 10 μM were dispensed into a white 384 well plate, alongside DMSO and an Inhibited control using the Tecan D300e digital dispenser. HEK 293 cells overexpressing recombinant human PDE10A2 were seeded on top of the compounds at 2500 cells/well in a volume 5 μL/well. The plate was incubated at room temperature for 60 minutes. To induce endogenous cAMP, 5 μL/well of Forskolin at a final assay concentration of 10 μM was added to the plate. The plate was incubated at room temperature for a further 45 minutes. cAMP HTRF detection reagents were added, and the plate was incubated for 60 minutes at room temperature. […] Data was analysed using a 4-parameter fit.
# Human PDE10A2 [2] = biological target: T1, Human PDE10A2; test: Biochemical human PDE10A activity assay - PDE10A2 Phosphate Sensor Assay; conditions: cGMP 3 μM substrate, PDE10A2 0.25 nM
# Experimental: Biochemical Human PDE10A Activity Assay—PDE10A2 Phosphate Sensor Assay
# Semi Log compound dilutions starting at a final concentration of 50 μM were dispensed into a black 384 well plate alongside, DMSO and an Inhibited control using the Echo Acoustic dispenser. […] Data was analysed using a 4-parameter fit.
# [3] = Forskolin 10 μM, read-out: cAMP HTRF Assay in HEK 293 rhPDE10A2 cell line (pIC50) (converted)
# T1 sequence (Q9Y233 267-1055): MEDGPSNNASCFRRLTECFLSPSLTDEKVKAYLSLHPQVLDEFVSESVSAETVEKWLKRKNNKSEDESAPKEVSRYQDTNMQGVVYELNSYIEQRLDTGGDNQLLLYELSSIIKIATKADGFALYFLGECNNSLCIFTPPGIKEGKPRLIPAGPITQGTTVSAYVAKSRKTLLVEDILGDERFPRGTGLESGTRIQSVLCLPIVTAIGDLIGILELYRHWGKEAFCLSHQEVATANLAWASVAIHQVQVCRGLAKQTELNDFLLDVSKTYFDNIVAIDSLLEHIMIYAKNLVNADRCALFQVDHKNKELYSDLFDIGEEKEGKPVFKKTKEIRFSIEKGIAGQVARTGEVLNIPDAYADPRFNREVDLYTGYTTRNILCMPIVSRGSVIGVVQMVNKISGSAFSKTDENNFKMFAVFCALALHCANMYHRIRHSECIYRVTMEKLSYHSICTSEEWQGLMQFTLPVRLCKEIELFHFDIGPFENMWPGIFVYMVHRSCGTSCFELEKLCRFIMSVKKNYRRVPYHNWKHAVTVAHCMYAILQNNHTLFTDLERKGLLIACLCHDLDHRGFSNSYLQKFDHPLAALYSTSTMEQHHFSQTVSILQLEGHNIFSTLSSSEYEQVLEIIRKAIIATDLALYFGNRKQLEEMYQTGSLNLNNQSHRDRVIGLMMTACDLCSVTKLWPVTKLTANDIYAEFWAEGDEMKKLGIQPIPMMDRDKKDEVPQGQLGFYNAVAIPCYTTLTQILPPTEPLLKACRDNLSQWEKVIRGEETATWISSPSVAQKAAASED
Compound,IC50 (Human PDE10A2 [1]; [3]),PDE10A2 Phosphate Sensor Enzyme Assay (pIC50) (Human PDE10A2 [2]),IC50 (Human PDE10A2 [1])
"Cn1cc(-c2ccncc2)c(-c2ccc(OCc3nc4ccccc4cc3C(=O)N=S(C)(=O)C3CC3)cc2)n1 (centres unmarked) [Example 14, N-(Cyclopropyl-methyl-oxo-λ6-sulfanylidene)-2-[[4-[1-methyl-4-(4-pyridyl)pyrazol-3-yl]phenoxy]methyl]quinoline-3-carboxamide]",0.676 nM,10.0,–
"Cn1cc(-c2ccncc2)c(-c2ccc(OCc3nc4ccccc4nc3N3CCNCC3)cc2)n1 [Example 42, 2-[[4-[1-Methyl-4-(4-pyridyl)pyrazol-3-yl]phenoxy]methyl]-3-piperazin-1-yl-quinoxaline]",–,8.96,12.3 nM
"Cn1ncc(-c2ccncc2)c1-c1ccc(OCc2cc(C(=O)O)c3ccccc3n2)cc1 [Example 1, 2-[[4-[2-Methyl-4-(4-pyridyl)pyrazol-3-yl]phenoxy]methyl]quinoline-4-carboxylic acid]",1.95 nM,9.43,–
"Cn1ncc(-c2ccncc2)c1-c1ccc(OCc2nc3ccccc3cc2C(=O)O)cc1 [Example 2, 2-[[4-[2-Methyl-4-(4-pyridyl)pyrazol-3-yl]phenoxy]methyl]quinoline-3-carboxylic acid]",0.117 nM,9.69,–
"Cn1cc(-c2ccncc2)c(-c2ccc(OCc3nc4ccc(F)cc4cc3C(=O)N=S(C)(C)=O)cc2)n1 [Example 22, N-[Dimethyl(oxo)-λ6-sulfanylidene]-6-fluoro-2-[[4-[1-methyl-4-(4-pyridyl)pyrazol-3-yl]phenoxy]methyl]quinoline-3-carboxamide]",17.4 nM,9.49,–
"Cc1ccc2nc(COc3ccc(-c4nn(C)cc4-c4ccncc4)cc3)c(C(=O)N=S(C)(C)=O)cc2c1 [Example 24, N-[Dimethyl(oxo)-λ6-sulfanylidene]-6-methyl-2-[[4-[1-methyl-4-(4-pyridyl)pyrazol-3-yl]phenoxy]methyl]quinoline-3-carboxamide]",331 nM,–,–
"Cn1cc(-c2ccncc2)c(-c2ccc(OCc3cc(C(=O)N=S(C)(C)=O)c4c(Cl)cccc4n3)cc2)n1 [Example 26, 5-Chloro-N-[Dimethyl(oxo)-λ6-sulfanylidene]-2-[[4-[1-methyl-4-(4-pyridyl)pyrazol-3-yl]phenoxy]methyl]quinoline-4-carboxamide]",42.7 nM,9.13,–
"CS(C)(=O)=Nc1cc(COc2ccc(-c3n[nH]cc3-c3ccncc3)cc2)nc2ccccc12 [Example 32, Dimethyl-oxo-[[2-[[4-[4-(4-pyridyl)-1H-pyrazol-3-yl]phenoxy]methyl]-4-quinolyl]imino]-λ6-sulfane]",46.8 nM,10.3,–
"CS(C)(=O)=NC(=O)c1cc(COc2ccc(-c3nn(CC(F)(F)F)cc3-c3ccncc3)cc2)nc2ccccc12 [Example 8, N-[Dimethyl(oxo)-λ6-sulfanylidene]-2-[[4-[4-(4-pyridyl)-1-(2,2,2-trifluoroethyl)pyrazol-3-yl]phenoxy]methyl]quinoline-4-carboxamide]",0.38 nM,10.2,–
"CS(=O)(=O)n1cc(-c2ccncc2)c(-c2ccc(OCc3ccc4ccccc4n3)cc2)n1 [Example 6, 2-[[4-[1-Methylsulfonyl-4-(4-pyridyl)pyrazol-3-yl]phenoxy]methyl]quinoline]",64.6 nM,8.36,–
"Cn1cc(-c2ccncc2)c(-c2ccc(OCc3nc4ccccc4cc3C(=O)N=S3(=O)CCCC3)cc2)n1 [Example 13, 2-[[4-[1-Methyl-4-(4-pyridyl)pyrazol-3-yl]phenoxy]methyl]-N-(1-oxothiolan-1-ylidene)quinoline-3-carboxamide]",0.977 nM,9.86,–
"CS(=N)(=O)c1cc(COc2ccc(-c3n[nH]cc3-c3ccncc3)cc2)nc2ccccc12 (centres unmarked) [Example 33, Imino-methyl-oxo-[2-[[4-[4-(4-pyridyl)-1H-pyrazol-3-yl]phenoxy]methyl]-4-quinolyl]-λ6-sulfane]",8.91 nM,9.32,–
"Cn1cc(-c2ccncc2)c(-c2ccc(OCc3cc(NS(C)(=O)=O)c4ccccc4n3)cc2)n1 [Example 34, N-[2-[[4-[1-Methyl-4-(4-pyridyl)pyrazol-3-yl]phenoxy]methyl]-4-quinolyl]methanesulfonamide]",1.2 nM,9.54,–
"CS(C)(=O)=NC(=O)c1cc(COc2ccc(-c3n[nH]cc3-c3ccncc3)cc2)nc2ccccc12 [Example 12, N-[Dimethyl(oxo)-λ6-sulfanylidene]-2-[[4-[4-(4-pyridyl)-1H-pyrazol-3-yl]phenoxy]methyl]quinoline-4-carboxamide]",5.01 nM,9.84,–
"Cn1cc(-c2ccncc2)c(-c2ccc(OCc3nc4cc(F)ccc4cc3C(=O)N=S(C)(C)=O)cc2)n1 [Example 21, N-[Dimethyl(oxo)-λ6-sulfanylidene]-7-fluoro-2-[[4-[1-methyl-4-(4-pyridyl)pyrazol-3-yl]phenoxy]methyl]quinoline-3-carboxamide]",550 nM,8.32,–
"Cn1cc(-c2ccncc2)c(-c2ccc(OCc3nc(N4CCS(=O)(=O)CC4)c4ccccc4n3)cc2)n1 [Example 37, 4-[2-[[4-[1-Methyl-4-(4-pyridyl)pyrazol-3-yl]phenoxy]methyl]quinazolin-4-yl]-1,4-thiazinane 1,1-dioxide]",1.48 nM,9.65,–
"Cc1cccc2nc(COc3ccc(-c4nn(C)cc4-c4ccncc4)cc3)c(C(=O)N=S(C)(C)=O)cc12 [Example 7, N-[Dimethyl(oxo)-λ6-sulfanylidene]-5-methyl-2-[[4-[1-methyl-4-(4-pyridyl)pyrazol-3-yl]phenoxy]methyl]quinoline-3-carboxamide]",1.48 nM,9.65,–
"Cn1cc(-c2ccncc2)c(-c2ccc(OCc3nc4ccccc4nc3N3CC(N)C3)cc2)n1 [Example 41, 1-[3-[[4-[1-Methyl-4-(4-pyridyl)pyrazol-3-yl]phenoxy]methyl]quinoxalin-2-yl]azetidin-3-amine]",–,9.45,7.59 nM
"Cn1cc(-c2ccncc2)c(-c2ccc(OCc3nc(N4CCNC(=O)C4)c4ccccc4n3)cc2)n1 [Example 38, 4-[2-[[4-[1-Methyl-4-(4-pyridyl)pyrazol-3-yl]phenoxy]methyl]quinazolin-4-yl]piperazin-2-one]",0.269 nM,10.1,–
"Cn1cc(-c2ccncc2)c(-c2ccc(OCc3nc(N4CC(N)C4)c4ccccc4n3)cc2)n1 [Example 39, 1-[2-[[4-[1-Methyl-4-(4-pyridyl)pyrazol-3-yl]phenoxy]methyl]quinazolin-4-yl]azetidin-3-amine]",24.5 nM,9.46,–
"CCn1cc(-c2ccncc2)c(-c2ccc(OCc3cc(C(=O)N=S(C)(C)=O)c4ccccc4n3)cc2)n1 [Example 27, N-[Dimethyl(oxo)-λ6-sulfanylidene]-2-[[4-[1-ethyl-4-(4-pyridyl)pyrazol-3-yl]phenoxy]methyl]quinoline-4-carboxamide]",0.537 nM,10.2,–
"Cn1cc(-c2ccncc2)c(-c2ccc(OCc3nc(N4CCNCC4)c4ccccc4n3)cc2)n1 [Example 40, 2-[[4-[1-Methyl-4-(4-pyridyl)pyrazol-3-yl]phenoxy]methyl]-4-piperazin-1-yl-quinazoline]",4.57 nM,8.98,–
"CNC(=O)Nc1cc(COc2ccc(-c3nn(C)cc3-c3ccncc3)cc2)nc2ccccc12 [Example 35, 1-Methyl-3-[2-[[4-[1-methyl-4-(4-pyridyl)pyrazol-3-yl]phenoxy]methyl]-4-quinolyl]urea]",3.47 nM,9.67,–
"CS(C)(=O)=NC(=O)c1cc(COc2ccc(-c3nn(C4CC4)cc3-c3ccncc3)cc2)nc2ccccc12 [Example 28, 2-[[4-[1-Cyclopropyl-4-(4-pyridyl)pyrazol-3-yl]phenoxy]methyl]-N-[dimethyl(oxo)-λ6-sulfanylidene]quinoline-4-carboxamide]",2.75 nM,9.42,–
"Cn1cc(-c2ccncc2)c(-c2ccc(OCc3cc(NC(=O)N=S(C)(C)=O)c4ccccc4n3)cc2)n1 [Example 36, 1-[Dimethyl(oxo)-λ6-sulfanylidene]-3-[2-[[4-[1-methyl-4-(4-pyridyl)pyrazol-3-yl]phenoxy]methyl]-4-quinolyl]urea]",16.6 nM,9.46,–
"Cn1cc(-c2ccncc2)c(-c2ccc(OCc3cc(C(=O)N=S(C)(C)=O)c4cc(F)ccc4n3)cc2)n1 [Example 25, N-[Dimethyl(oxo)-λ6-sulfanylidene]-6-fluoro-2-[[4-[1-methyl-4-(4-pyridyl)pyrazol-3-yl]phenoxy]methyl]quinoline-4-carboxamide]",3.63 nM,9.41,–
"CN(C(=O)c1cc(COc2ccc(-c3nn(C)cc3-c3ccncc3)cc2)nc2ccccc12)S(C)(=O)=O [Example 16, N-Methyl-2-[[4-[1-methyl-4-(4-pyridyl)pyrazol-3-yl]phenoxy]methyl]-N-methylsulfonyl-quinoline-4-carboxamide]",0.603 nM,9.87,–
